ChEMBL document CHEMBL4118198, “Synthesis and antiviral evaluation of novel peptidomimetics as norovirus protease inhibitors” (Bioorg Med Chem Lett, 2018)

Tests used:
CCRF-CEM = test: Cytotoxicity against human CEM cells assessed as reduction in cell viability after 6 days by trypan blue exclusion assay; assay type: cell-based; conditions: 144 h
Huh-7 = test: Cytotoxicity against human HuH7 cells assessed as reduction in cell viability; assay type: cell-based
PBMC = test: Cytotoxicity against human PBMC assessed as reduction in cell viability after 6 days by trypan blue exclusion assay; assay type: cell-based; conditions: 144 h
Vero = test: Cytotoxicity against African green monkey Vero cells assessed as reduction in cell viability after 3 days by hemocytometer; assay type: cell-based; conditions: chlorocebus sabaeus, 72 h
[1] = molecular target: Nonstructural polyprotein (Norovirus Hu/GI/10360/2010/VNM, UniProt I1U3K2); test: (§1) Inhibition of Norovirus prototypic GI.1 3CL protease using HiLyte Fluor 488-labelled DFELQGPK as substrate incubated for 90 mins measured every mins for 20 mins by FRET assay; set-up: species or system Norovirus GI.1
[2] = molecular target: Nonstructural polyprotein (Norovirus Hu/GI/10360/2010/VNM) (UniProt I1U3K2); test: as §1; conditions: Norovirus GI.1
Protease = molecular target: T1, Protease (Norovirus Hu/GII.4-2002/WeertE022/2002/NL, UniProt G1FEK8); test: (§2) Inhibition of Norovirus prototypic GII.4 3CL protease using HiLyte Fluor 488-labelled DFELQGPK as substrate incubated for 90 mins measured every mins for 20 mins by FRET assay; set-up: species or system Norovirus GII.4
T1 sequence (G1FEK8 whole entry): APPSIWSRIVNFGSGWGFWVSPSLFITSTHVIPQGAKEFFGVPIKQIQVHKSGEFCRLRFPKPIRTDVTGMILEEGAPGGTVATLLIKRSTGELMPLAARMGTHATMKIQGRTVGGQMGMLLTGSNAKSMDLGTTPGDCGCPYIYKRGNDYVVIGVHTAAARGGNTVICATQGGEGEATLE

[3] = molecular target: T2, Protease (Norovirus Hu/GII.4-2002/WeertE022/2002/NL) (UniProt G1FEK8); test: as §2; conditions: Norovirus GII.4
T2 sequence (whole entry): T1 sequence (G1FEK8 whole entry)

Norovirus [4] = test: Antiviral activity against Norovirus prototypic GI.1 infected in human HG23 cells assessed as inhibition of viral RNA replication after 4 days by RT-qPCR method; assay type: functional, organism-based, Norovirus GI.1
Norovirus [5] = test: Antiviral activity against Norovirus prototypic GI.1 infected in human HG23 cells assessed as inhibition of viral RNA replication at 10 uM after 4 days by RT-qPCR method relative to control; assay type: functional, Norovirus GI.1; conditions: HG23, 96 h
[6] = molecular target: T2, Protease (Norovirus Hu/GII.4-2002/WeertE022/2002/NL); test: Inhibition of Norovirus prototypic GII.4 3CL protease using HiLyte Fluor 488-labelled DFELQGPK as substrate incubated for 90 mins measured every mins for 20 mins by FRET assay relative to control; conditions: Norovirus GII.4
[7] = Norovirus, HG23, 96 h, read-out: EC50

Chain of Nonstructural polyprotein (Norovirus Hu/GI/10360/2010/VNM) (I1U3K2 as listed by the source): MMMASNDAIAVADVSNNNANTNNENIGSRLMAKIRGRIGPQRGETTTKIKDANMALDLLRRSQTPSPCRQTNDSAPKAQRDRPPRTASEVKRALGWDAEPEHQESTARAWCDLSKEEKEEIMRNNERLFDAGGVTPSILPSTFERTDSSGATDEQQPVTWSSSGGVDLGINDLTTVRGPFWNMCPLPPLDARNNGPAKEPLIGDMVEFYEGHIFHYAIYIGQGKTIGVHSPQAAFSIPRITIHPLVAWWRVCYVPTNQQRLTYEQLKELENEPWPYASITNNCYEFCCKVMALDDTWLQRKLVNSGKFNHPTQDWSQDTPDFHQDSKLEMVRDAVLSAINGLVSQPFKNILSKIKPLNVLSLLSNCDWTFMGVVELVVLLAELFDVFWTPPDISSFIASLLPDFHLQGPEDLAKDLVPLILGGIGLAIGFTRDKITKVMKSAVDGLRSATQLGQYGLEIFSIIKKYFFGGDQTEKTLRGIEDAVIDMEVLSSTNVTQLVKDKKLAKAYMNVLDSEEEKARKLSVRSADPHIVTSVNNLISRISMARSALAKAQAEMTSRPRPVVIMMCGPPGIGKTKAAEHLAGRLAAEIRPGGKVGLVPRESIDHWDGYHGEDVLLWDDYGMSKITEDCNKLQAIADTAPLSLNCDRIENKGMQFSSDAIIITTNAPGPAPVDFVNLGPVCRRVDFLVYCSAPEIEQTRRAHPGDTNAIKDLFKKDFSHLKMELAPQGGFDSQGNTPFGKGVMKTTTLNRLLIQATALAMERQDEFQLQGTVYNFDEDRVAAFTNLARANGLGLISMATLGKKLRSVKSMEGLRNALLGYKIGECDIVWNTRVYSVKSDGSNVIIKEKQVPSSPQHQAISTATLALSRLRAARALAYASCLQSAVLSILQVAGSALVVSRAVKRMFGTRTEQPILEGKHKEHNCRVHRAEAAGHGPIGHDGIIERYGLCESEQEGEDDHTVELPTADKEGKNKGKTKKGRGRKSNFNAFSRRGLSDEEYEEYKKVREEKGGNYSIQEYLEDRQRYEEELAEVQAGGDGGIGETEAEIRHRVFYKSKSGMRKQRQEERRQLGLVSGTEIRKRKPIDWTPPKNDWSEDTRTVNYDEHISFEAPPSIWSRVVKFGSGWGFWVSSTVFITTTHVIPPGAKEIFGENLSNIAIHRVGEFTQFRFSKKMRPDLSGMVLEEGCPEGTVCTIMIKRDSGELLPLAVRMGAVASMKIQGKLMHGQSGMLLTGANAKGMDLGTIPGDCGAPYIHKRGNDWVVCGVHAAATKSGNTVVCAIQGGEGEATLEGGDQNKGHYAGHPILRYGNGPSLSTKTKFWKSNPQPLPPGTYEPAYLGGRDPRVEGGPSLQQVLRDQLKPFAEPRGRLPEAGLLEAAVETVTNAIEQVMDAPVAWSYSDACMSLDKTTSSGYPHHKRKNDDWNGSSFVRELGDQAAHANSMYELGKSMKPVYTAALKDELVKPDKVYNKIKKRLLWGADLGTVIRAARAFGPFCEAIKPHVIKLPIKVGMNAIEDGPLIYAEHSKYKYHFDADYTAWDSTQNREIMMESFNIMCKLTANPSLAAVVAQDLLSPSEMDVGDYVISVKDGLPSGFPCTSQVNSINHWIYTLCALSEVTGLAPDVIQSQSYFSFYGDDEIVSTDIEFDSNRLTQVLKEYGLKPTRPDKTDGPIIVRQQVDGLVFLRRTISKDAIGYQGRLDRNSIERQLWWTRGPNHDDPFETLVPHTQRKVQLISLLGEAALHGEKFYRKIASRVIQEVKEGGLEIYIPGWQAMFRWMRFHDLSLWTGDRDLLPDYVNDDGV
Chain of Nonstructural polyprotein (I1U3K2 whole entry): as the sequence (I1U3K2 as listed by the source) above

Structure (SMILES)	CC50 (CCRF-CEM) [µM]	CC50 (Huh-7) [µM]	CC50 (PBMC) [µM]	CC50 (Vero) [µM]	IC50 [1] [µM]	IC90 [2] [µM]	IC50 (Protease) [µM]	IC90 [3] [µM]	EC90 (Norovirus [4]; Norovirus, HG23, 96 h) [µM]	EC50 (Norovirus [4]; [7]) [µM]	inhibition at 10 µM (Norovirus [5]) [%]	EC50 (Norovirus [4])	inhibition [6] [%]
CC(C)C[C@H](NC(=O)[C@H](Cc1cccc2ccccc12)NC(=O)OCc1ccccc1)C(=O)N[C@@H](C[C@@H]1CCCNC1=O)C(O)S(=O)(=O)O (some centres not stated)	18.3	11.2	43.8	> 100	0.654	2.24	2.63	14	2.45	0.39	–	–	–
CC(C)C[C@H](NC(=O)[C@H](Cc1cccc2ccccc12)NC(=O)OCc1ccccc1)C(=O)N[C@H](CCl)C[C@@H]1CCCNC1=O	26.6	–	75	51.7	–	–	> 100	–	–	> 10	–	–	–
CC(C)C[C@H](NC(=O)[C@H](Cc1cccc2ccccc12)NC(=O)OCc1ccccc1)C(=O)N[C@H](C=O)C[C@@H]1CCNC1=O	39.5	> 10	28.4	> 100	0.032	0.248	0.06	0.205	8.36	1.13	–	–	–
CC(C)C[C@H](NC(=O)[C@H](Cc1cccc2ccccc12)NC(=O)OCc1ccccc1)C(=O)NC(C[C@@H]1CCNC1=O)C1CO1 (some centres not stated)	14	–	15.7	30.4	> 100	–	> 100	–	–	> 10	–	–	–
CC(C)C[C@H](NC(=O)[C@H](Cc1cccc2ccccc12)NC(=O)OCc1ccccc1)C(=O)N[C@H](CO)Cn1ccnn1	0.3	2.7	1.9	3.2	> 1	–	> 10	–	–	–	99	Nd(Toxic)	–
CC(C)C[C@H](NC(=O)[C@H](Cc1cccc2ccccc12)NC(=O)OCc1ccccc1)C(=O)N[C@H](CO)CCC(=O)N1CCC1	2.2	–	18.4	8.6	> 1	–	0.502	5.54	17.3	6.19	–	–	–
CC(C)C[C@H](NC(=O)[C@H](Cc1cccc2ccccc12)NC(=O)OCc1ccccc1)C(=O)N[C@@H](C[C@@H]1CCCNC1=O)C(=O)C(F)(F)F	18.3	11.2	43.8	> 100	0.654	2.24	2.63	14	2.45	0.39	–	–	–
CC(C)C[C@H](NC(=O)[C@H](Cc1cccc2ccccc12)NC(=O)OCc1ccccc1)C(=O)NC(C[C@@H]1CCNC1=O)C1OC1S(C)(=O)=O (some centres not stated)	63.9	–	> 100	> 100	> 10	–	30	> 100	> 20	4.33	–	–	–
CC(C)C[C@H](NC(=O)[C@H](Cc1cccc2ccccc12)NC(=O)OCc1ccccc1)C(=O)N[C@H](CO)CNC(=O)N1CCC1	2.2	33	21.2	> 100	> 100	–	> 100	–	–	> 10	–	–	4
CC(C)C[C@H](NC(=O)[C@H](Cc1cccc2ccccc12)NC(=O)OCc1ccccc1)C(=O)N[C@H](CS)C[C@@H]1CCNC1=O	> 100	93.5	> 100	> 100	> 10	–	> 10	–	–	> 10	–	–	–
CC(C)C[C@H](NC(=O)[C@H](Cc1cccc2ccccc12)NC(=O)OCc1ccccc1)C(=O)NC(/C=C/C=O)C[C@@H]1CCNC1=O (some centres not stated)	1.9	–	3.9	77.7	> 10	–	> 100	–	> 10	4.7	–	–	–
CC(C)C[C@H](NC(=O)[C@H](Cc1cccc2ccccc12)NC(=O)OCc1ccccc1)C(=O)N[C@H](/C=C(\C#N)C(N)=O)C[C@@H]1CCCNC1=O	9.1	8.4	45.4	> 100	0.593	1.7	1.17	3.6	7.82	0.75	–	–	–
CC(C)C[C@H](NC(=O)[C@H](Cc1cccc2ccccc12)NC(=O)OCc1ccccc1)C(=O)N[C@H](C=O)C[C@@H]1CCCNC1=O	31.6	25.7	23.6	19.8	0.08	0.155	0.15	1.19	0.92	0.42	–	–	–
